# Measured values as given in patent publication US6995135B2, “Peptides and peptidomimetics having anti-proliferative activity and/or that augment nucleic acid damaging agents or treatments” (priority 2002, dated 2006).
# Where two headings read alike, the source gives them in different places. Square brackets hold non-standard residues; d marks the D form. Peptide text beside a SMILES is read from it. dPhe(4-NO2) = N[C@H](Cc1ccc([N+](=O)[O-])cc1)C(=O)O; dPhe(F5) = N[C@H](Cc1c(F)c(F)c(F)c(F)c1F)C(=O)O; dBpa = N[C@H](Cc1ccc(C(=O)c2ccccc2)cc1)C(=O)O; dCha = N[C@H](CC1CCCCC1)C(=O)O
# What was measured:
# [1] = molecular target: T1, recombinant human full length Chk1 (Homo sapiens, UniProt O14757); assay: In vitro kinase inhibition (CycLex), phosphorylation of serine 216 on GST-Cdc25C; type: biochemical
# T1 construct: baculovirus derived recombinant human full length Chk1 with histidine tag; histidine tag; host or cells: baculovirus system (insect cells)
# T1 sequence (O14757 1-476): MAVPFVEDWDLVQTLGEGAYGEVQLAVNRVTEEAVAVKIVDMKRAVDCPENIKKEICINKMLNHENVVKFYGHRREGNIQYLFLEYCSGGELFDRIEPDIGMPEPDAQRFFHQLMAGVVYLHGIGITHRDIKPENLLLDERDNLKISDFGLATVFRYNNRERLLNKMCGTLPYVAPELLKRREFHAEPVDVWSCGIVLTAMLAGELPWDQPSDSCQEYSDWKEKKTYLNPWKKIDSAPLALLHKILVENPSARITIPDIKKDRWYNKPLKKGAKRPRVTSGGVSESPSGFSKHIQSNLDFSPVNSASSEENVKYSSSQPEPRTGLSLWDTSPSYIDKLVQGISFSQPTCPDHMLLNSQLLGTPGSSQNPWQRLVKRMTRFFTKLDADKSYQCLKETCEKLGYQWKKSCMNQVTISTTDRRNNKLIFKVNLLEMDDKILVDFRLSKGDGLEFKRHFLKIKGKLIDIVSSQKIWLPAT
# Protocol: (§1) In vitro kinase inhibition analysis was performed by CycLex, Co. Ltd., Nagano, Japan. Briefly, baculovirus derived recombinant human full length Chk1 with histidine tag or E. Coli derived recombinant human full length Chk2 fused with GST were used as kinases. E. Coli derived recombinant GST-Cdc25C (amino acis 167–267) was used as a substrate. Reaction conditions were 20 mM Hepes-KOH (pH7.5), 1 mM DTT, […] BSA, 10 mM MgCl2 and […] ATP at 30 degree for 60 min. The phosphorylation of serine 216 on GST-Cdc25C was detected by anti-Cdc25C-phosphorylated S216 antibody with enzyme linked immune assay.
# [2] = molecular target: T2, recombinant human full length Chk2 (Homo sapiens, UniProt O96017); assay: as above; type: biochemical
# T2 construct: E. Coli derived recombinant human full length Chk2 fused with GST; host or cells: E. coli
# Protocol: as §1
# [3] = test system: Jurkat cells; assay: G2 checkpoint abrogation in bleomycin treated Jurkat cells, flow cytometry; type: cell-based, human; conditions: for G2 abrogating dose: Jurkat cells, with 40 μg/ml bleomycine, 24 hours, dose with detectable G2 checkpoint abrogation; for G2 checkpoint abrogating activity (in words): bleomycin (40 μg/ml) treated Jurkat cells, % G2/M cells
# Protocol: Flow cytometry analysis of G2 checkpoint abrogation was performed using human leukemia derived Jurkat cell line. In brief, cultured cells were treated with various doses of peptide/peptidomimetic and 40 μg/ml bleomycine for 24 hr. The DNA of the cells was stained with propidium iodide and analyzed by flow cytometry.
# The “Appearance of side effect when used alone” indicates the peptide/peptidomimetic dose that produced Jurkat cell cycle disturbance, i.e., the appearance of significant amounts of SubG1 cells (dead cells) or cells in which the DNA content of each varies more than usual. […] The “G2 abrogating dose” indicates the peptide/peptidomimetic dose with 40 μg/ml bleomycine that produced detectable G2 checkpoint abrogation activity following treatment for 24 hours. The “Appearance of side effect when used with colchicine” indicates the peptide/peptidomimetic dose with 5 μg/ml colchicine that produced Jurkat cell cycle disturbance following treatment for 24 hours.
# [4] = Human serum treatment analysis, residual G2 checkpoint abrogating activity; type: in vitro ADME; conditions: d-type amino acid peptides compared with l-type peptide such as CBP413
# Protocol: Serum analysis was performed to determine the stability of peptides in mouse and human serum. Briefly, peptides (10 mM or 2.5 mM) were incubated with freshly prepared human serum at 37 degrees for 1 hr. CBP50 (10 mM) was incubated with freshly prepared mouse serum for 1 hr at 37 degree. Jurkat cells were treated with the serum with or without peptides and bleomycin (40 μg/ml) and incubated for 24 hr. The population of G2 phase cells was determined by flow cytometry as previously described. The residual G2 checkpoint abrogating activity of serum treated peptides were determined by comparing the % G2 cells of the treated serum and the standard curve produced with medium treated peptides, bleomycin and Jurkat cells (Table 5A).
# [5] = Maximal tolerated dose in mouse by single injection; conditions: in vivo, observed for a week
# [6] = test system: Jurkat cells; assay: M phase checkpoint abrogation / non specific toxicity in colchicine treated Jurkat cells, flow cytometry; type: cell-based; conditions: with 5 μg/ml colchicine, 24 hours
# Protocol: Cell-cycle analysis The cell cycle status of the cells treated with bleomycin or adriamcin were analyzed by flow cytometry as described by Kawabe (1997) Nature 385:454–458. In brief, two million cells were re-suspended and incubated in 200 μul Krishan's solution (0.1% Sodium citrate, 50 μg/ml PI, 20 μg/ml RNase A and 0.5% NP-40) for 1 hr at 4° C. and analyzed by a flow cytometry, FACScan™ (Beckton Dickinson, Mountain View, Calif.) with the program CELLQuest™ (Beckton Dickinson).
# Flow cytometry analysis of M phase checkpoint abrogation by the compounds was performed using human T cell leukemia Jurkat cell line treated with colchicine (5 μg/ml or 0.5 μg/ml) and various doses of peptide/peptidomimetics for 24 hr (FIG. 12). The DNA of the cells was stained and analyzed by flow cytometry as described above.
# The “Appearance of side effect when used alone” indicates the peptide/peptidomimetic dose that produced Jurkat cell cycle disturbance, i.e., the appearance of significant amounts of SubG1 cells (dead cells) or cells in which the DNA content of each varies more than usual. […]
# A comparison between G2 checkpoint abrogating activity and non specific toxicity (M checkpoint abrogation) by CB501 was performed. […] The DNA amount in each of the treated cells was analyzed by flow cytometry, as previously described.
# T2 sequence (O96017 whole entry, the tested form may be a part): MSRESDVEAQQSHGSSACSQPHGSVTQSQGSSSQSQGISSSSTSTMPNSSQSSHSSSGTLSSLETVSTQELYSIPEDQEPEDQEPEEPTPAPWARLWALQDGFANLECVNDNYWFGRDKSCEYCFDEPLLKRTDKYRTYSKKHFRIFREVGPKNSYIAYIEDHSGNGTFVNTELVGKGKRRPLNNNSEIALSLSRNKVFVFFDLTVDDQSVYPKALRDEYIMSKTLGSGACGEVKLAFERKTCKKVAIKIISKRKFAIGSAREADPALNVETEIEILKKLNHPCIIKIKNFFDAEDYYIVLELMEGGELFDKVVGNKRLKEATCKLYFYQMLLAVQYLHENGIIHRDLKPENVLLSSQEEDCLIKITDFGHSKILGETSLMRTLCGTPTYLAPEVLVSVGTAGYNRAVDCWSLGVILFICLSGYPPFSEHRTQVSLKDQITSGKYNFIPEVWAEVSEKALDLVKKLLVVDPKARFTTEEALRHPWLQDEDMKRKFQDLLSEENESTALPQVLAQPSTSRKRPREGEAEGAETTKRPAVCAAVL
molecule,measurement,setting,value
"N=C(N)NCCC[C@@H](NC(=O)[C@@H](CCCNC(=N)N)NC(=O)[C@@H](CCC(N)=O)NC(=O)[C@@H](CCCNC(=N)N)NC(=O)[C@@H](CCCNC(=N)N)NC(=O)[C@@H](CCCNC(=N)N)NC(=O)[C@@H](CC1CCCCC1)NC(=O)[C@@H](Cc1c(F)c(F)c(F)c(F)c1F)NC(=O)[C@@H](CC(=O)O)NC(=O)[C@@H](CO)NC(=O)[C@@H](Cc1c[nH]c2ccccc12)NC(=O)[C@@H](CO)NC(=O)[C@H](N)Cc1ccc(C(=O)c2ccccc2)cc1)C(=O)O [CBP506, (d-Bpa)(d-Ser)(d-Trp)(d-Ser)(d-Asp)(d-Phe-2,3,4,5,6-F)(d-Cha)(d-Arg)(d-Arg)(d-Arg)(d-Gln)(d-Arg)(d-Arg)] (H-[dBpa][dS][dW][dS][dD][dPhe(F5)][dCha][dR][dR][dR][dQ][dR][dR]-OH; N-terminus and C-terminus assumed)",IC50,[1],37.6 µM
same,IC50,[2],67 µM
"N=C(N)NCCC[C@@H](NC(=O)[C@@H](CCCNC(=N)N)NC(=O)[C@@H](CCC(N)=O)NC(=O)[C@@H](CCCNC(=N)N)NC(=O)[C@@H](CCCNC(=N)N)NC(=O)[C@@H](CCCNC(=N)N)NC(=O)[C@@H](CC1CCCCC1)NC(=O)[C@@H](Cc1c(F)c(F)c(F)c(F)c1F)NC(=O)[C@@H](CO)NC(=O)[C@@H](Cc1c[nH]c2ccccc12)NC(=O)[C@@H](CO)NC(=O)[C@@H](Cc1ccc(C(=O)c2ccccc2)cc1)NC(=O)[C@H](N)Cc1ccc(O)cc1)C(=O)O [CBP500, (d-Tyr)(d-Bpa)(d-Ser)(d-Trp)(d-Ser)(d-Phe-2,3,4,5,6-F)(d-Cha)(d-Arg)(d-Arg)(d-Arg)(d-Gln)(d-Arg)(d-Arg)] (H-[dY][dBpa][dS][dW][dS][dPhe(F5)][dCha][dR][dR][dR][dQ][dR][dR]-OH; N-terminus and C-terminus assumed)",G2 abrogating dose,[3],≧0.39 μM
"N=C(N)NCCC[C@@H](NC(=O)[C@@H](CCCCN)NC(=O)[C@@H](CCCCN)NC(=O)[C@@H](CCCNC(=N)N)NC(=O)[C@@H](CCCNC(=N)N)NC(=O)[C@@H](CCC(N)=O)NC(=O)[C@@H](CCCNC(=N)N)NC(=O)[C@@H](CCCNC(=N)N)NC(=O)[C@@H](CCCNC(=N)N)NC(=O)[C@@H](CC1CCCCC1)NC(=O)[C@@H](Cc1c(F)c(F)c(F)c(F)c1F)NC(=O)[C@@H](CCCNC(=N)N)NC(=O)[C@@H](CO)NC(=O)CNC(=O)[C@@H](CO)NC(=O)[C@@H](Cc1ccc(O)cc1)NC(=O)[C@H](N)Cc1ccc(O)cc1)C(=O)NCC(=O)N[C@H](Cc1ccc(O)cc1)C(=O)O [CBP450, (d-Tyr)(d-Tyr)(d-Ser)(l-Gly)(d-Ser)(d-Arg)(d-Phe-2,3,4,5,6-F)(d-Cha)(d-Arg)(d-Arg)(d-Arg)(d-Gln)(d-Arg)(d-Arg)(d-Lys)(d-Lys)(d-Arg)(l-Gly)(d-Tyr)] (H-[dY][dY][dS]G[dS][dR][dPhe(F5)][dCha][dR][dR][dR][dQ][dR][dR][dK][dK][dR]G[dY]-OH; N-terminus and C-terminus assumed)",G2 abrogating dose,[3],≧0.78 μM
"(d-Arg)(d-Arg)(d-Arg)(d-Arg)(d-Bpa)(d-Arg)(d-Trp)(d-Arg)(d-Phe-2,3,4,5,6-F)(d-Cha) [CBP702]",G2 checkpoint abrogating activity (in words),[3],retain G2 checkpoint abrogating activity comparable to other peptides having significant G2 checkpoint abrogating activity
"N=C(N)NCCC[C@@H](NC(=O)[C@@H](CCCNC(=N)N)NC(=O)[C@@H](CCC(N)=O)NC(=O)[C@@H](CCCNC(=N)N)NC(=O)[C@@H](CCCNC(=N)N)NC(=O)[C@@H](CCCNC(=N)N)NC(=O)[C@@H](CC1CCCCC1)NC(=O)[C@@H](Cc1ccc([N+](=O)[O-])cc1)NC(=O)[C@@H](CO)NC(=O)[C@@H](Cc1c[nH]c2ccccc12)NC(=O)[C@@H](CO)NC(=O)[C@H](N)Cc1ccc(C(=O)c2ccccc2)cc1)C(=O)O [CBP603, (d-Bpa)(d-Ser)(d-Trp)(d-Ser)(d-Phe4No2)(d-Cha)(d-Arg)(d-Arg)(d-Arg)(d-Gln)(d-Arg)(d-Arg)] (H-[dBpa][dS][dW][dS][dPhe(4-NO2)][dCha][dR][dR][dR][dQ][dR][dR]-OH; N-terminus and C-terminus assumed)",Stability in serum (in words),[4],more stable in serum
"(d-Arg)(d-Arg)(d-Arg)(d-Bpa)(d-Arg)(d-Trp)(d-Arg)(d-Phe-2,3,4,5,6-F)(d-Cha) [CBP701]",G2 checkpoint abrogating activity (in words),[3],retain G2 checkpoint abrogating activity comparable to other peptides having significant G2 checkpoint abrogating activity
"(d-Arg)(d-Arg)(d-Bpa)(d-Arg)(d-Arg)(d-Arg)(d-Phe-2,3,4,5,6-F)(d-Cha) [CBP700]",G2 checkpoint abrogating activity (in words),[3],retain G2 checkpoint abrogating activity comparable to other peptides having significant G2 checkpoint abrogating activity
"N=C(N)NCCC[C@H](NC(=O)CNC(=O)[C@@H](N)Cc1ccc(O)cc1)C(=O)N[C@@H](CCCCN)C(=O)N[C@@H](CCCCN)C(=O)N[C@@H](CCCNC(=N)N)C(=O)N[C@@H](CCCNC(=N)N)C(=O)N[C@@H](CCC(N)=O)C(=O)N[C@@H](CCCNC(=N)N)C(=O)N[C@@H](CCCNC(=N)N)C(=O)N[C@@H](CCCNC(=N)N)C(=O)N[C@@H](CC1CCCCC1)C(=O)N[C@@H](Cc1c(F)c(F)c(F)c(F)c1F)C(=O)N[C@@H](CCCNC(=N)N)C(=O)N[C@@H](CO)C(=O)N1CCC[C@H]1C(=O)N[C@@H](CO)C(=O)N[C@@H](Cc1ccc(O)cc1)C(=O)N[C@@H](Cc1ccc(O)cc1)C(=O)O [CBP413, (l-Tyr)(l-Gly)(l-Arg)(l-Lys)(l-Lys)(l-Arg)(l-Arg)(l-Gln)(l-Arg)(l-Arg)(l-Arg)(l-Cha)(l-Phe-2,3,4,5,6-F)(l-Arg)(l-Ser)(l-Pro)(l-Ser)(l-Tyr)(l-Tyr)]",MTD,"[5]; ip, single intra-peritoneal injection, read-out: MTD (ip)",147 mg/kg
same,MTD,"[5]; single intravenous injection, read-out: MTD (iv)",14 mg/kg
"(d-Arg)(d-Arg)(d-Arg)(d-Bpa)(d-Arg)(d-Arg)(d-Arg)(d-Phe-2,3,4,5,6-F)(d-Cha) [CBP703]",G2 checkpoint abrogating activity (in words),[3],retain G2 checkpoint abrogating activity comparable to other peptides having significant G2 checkpoint abrogating activity
"N=C(N)NCCC[C@H](NC(=O)CNC(=O)[C@@H](N)Cc1ccc(O)cc1)C(=O)N[C@@H](CCCCN)C(=O)N[C@@H](CCCCN)C(=O)N[C@@H](CCCNC(=N)N)C(=O)N[C@@H](CCCNC(=N)N)C(=O)N[C@@H](CCC(N)=O)C(=O)N[C@@H](CCCNC(=N)N)C(=O)N[C@@H](CCCNC(=N)N)C(=O)N[C@@H](CCCNC(=N)N)C(=O)N[C@@H](CC1CCCCC1)C(=O)N[C@@H](Cc1c(F)c(F)c(F)c(F)c1F)C(=O)N[C@@H](CCCNC(=N)N)C(=O)N[C@@H](CO)C(=O)N1CCC[C@H]1C(=O)N[C@@H](CO)C(=O)N[C@@H](Cc1ccc(O)cc1)C(=O)O [CBP420, (l-Tyr)(l-Gly)(l-Arg)(l-Lys)(l-Lys)(l-Arg)(l-Arg)(l-Gln)(l-Arg)(l-Arg)(l-Arg)(l-Cha)(l-Phe-2,3,4,5,6-F)(l-Arg)(l-Ser)(l-Pro)(l-Ser)(l-Tyr)]",Appearance of side effect when used with Colchicine,[6],≧50 μM
